# Patent publication US9029092B2, “Solution phase homogeneous assays” (Beckman Coulter, Inc., priority 2009, dated 2015)
# Read-outs that look alike come from different tables or passages of the source.
# System: Rabbit anti cAMP
# Description: There are provided homogeneous immunoassays of an analyte utilizing a chemiluminescent-labeled capture antibody in combination with labeled analyte in a competitive immunoassay reaction. The example analyte cyclic-AMP (“cAMP”) is conjugated with HRP to provide a cAMP-HRP reagent, which competes for analyte cAMP at the capture antibody (“Capture Ab”) which is conjugated with AK5 to form a capture antibody-AK5 complex. […] Analyte (cAMP) which is not conjugated with HRP competes for the […], and upon addition of trigger solution the resulting capture antibody-AK5-cAMP complex provides no chemiluminescence (i.e., “No Light”). Accordingly, analyte cAMP competes for capture antibody-AK5 complex and thereby suppresses signal due to the capture antibody-AK1-cAMP-HRP complex.
# Rabbit anti cAMP (IMMUNOTECH, Marseille) 0.1 mg (20.3 uL from 4.93 mg/mL stock) was added to 162 uL of 0.1 M sodium borate pH 8.25 buffer in 1.7 mL centrifuge tube. 17.6 ug of AK5 (17.6 ul from 1 mg/mL stock of DMF) was added. After quick vortex mixing tube was placed on a rotating shaker for 1 hour at room temperature. Reaction was quenched by adding 1.2 uL of L-lysine from 3 mg/mL stock. Reaction mixture was diluted (1:1) in 0.4% BSA and PBS and stored at 4 C. cAMP-HRP was prepared according to the literature. […] A 30 nM stock of cAMP was prepared in PBS and further diluted in PBS to make sample calibrators for the assay.
# The competitive immunoassay protocol was as follows. AK5 labeled monoclonal Rabbit anti cAMP (0.275 ug/mL) (3 uL), HRP labeled cAMP (0.09375 ug/mL) (3 ul) and cAMP calibrators (4 ul) were added into a white polystyrene 384 low volume plate. Conjugate solutions were 0.2% in BSA. After incubation of 30 minutes at room temperature, 1 ul of 2-aminophenol (0.6875 mM) was added followed by a trigger solution (10 ul). The trigger solution contained 25 mM Tris pH 8, 8 mM p-hydroxycinnamic acid, 1 mM EDTA, 0.2% Tween-20 and 0.1 M ureaperoxide. Light intensity was measured (Spectromax) for one second immediately upon injection of trigger. Reactants were not exposed to light during incubation and were not shaken.
structure (smiles),measurement,setting,value
"Nc1ncnc2c1ncn2[C@@H]1O[C@@H]2COP(=O)(O)O[C@H]2[C@H]1O [cAMP, cyclic-AMP]",Average (light intensity),cAMP 0.412 nM,83377
same,Signal Suppression,cAMP 0.412 nM,9%
same,Average (light intensity),cAMP 3.7 nM,31156
same,Signal Suppression,cAMP 3.7 nM,66%
same,Average (light intensity),cAMP 33.3 nM,943
same,Signal Suppression,cAMP 33.3 nM,99%
same,Average (light intensity),cAMP 100 nM,315
same,Signal Suppression,cAMP 100 nM,100%
same,Average (light intensity),cAMP 1000 nM,173
same,Signal Suppression,cAMP 1000 nM,100%
same,Average (light intensity),cAMP 10000 nM,167
same,Signal Suppression,cAMP 10000 nM,100%
same,IC50,"read-out: IC50 for cAMP, competition with cAMP-HRP at AK5-labeled antibody, 2-aminophenol as SSIA",2.6 nM
